Experimental data published in patent US20040067915A1, “Method to treat cardiofibrosis with a combination of an angiotensin II antagonist and spironolactone” (G.D. Searle & Co., priority 1995, published 2004).

What follows are molecules tested against T1, angiotensin II receptor (rabbit aortic rings) (Oryctolagus cuniculus, UniProt P34976) (assay: Assay B: In vitro Vascular Smooth Muscle Response for AII (rabbit aortic rings, pA2)). Settings: not given.
T1 construct: The thoracic aorta was removed, cleaned of adherent fat and connective tissue and then cut into 3-mm ring segments; from tissue; host or cells: rabbit thoracic aorta rings, endothelium removed
T1 sequence (P34976 1-359): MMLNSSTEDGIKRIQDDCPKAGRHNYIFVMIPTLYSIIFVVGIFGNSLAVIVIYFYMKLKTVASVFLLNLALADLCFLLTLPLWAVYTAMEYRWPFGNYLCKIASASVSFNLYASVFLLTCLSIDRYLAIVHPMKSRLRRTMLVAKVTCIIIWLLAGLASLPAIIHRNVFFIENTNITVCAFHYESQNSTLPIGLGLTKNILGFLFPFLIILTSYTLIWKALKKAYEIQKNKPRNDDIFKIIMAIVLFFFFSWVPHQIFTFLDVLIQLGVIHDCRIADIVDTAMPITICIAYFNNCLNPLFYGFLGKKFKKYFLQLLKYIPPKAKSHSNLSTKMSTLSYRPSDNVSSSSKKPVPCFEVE
Type: cell-based
Set-up: key to Assay B pA2 (NC = Non-Competitive antagonist): NC=Non-Competitive antagonist
Protocol: Assay B: In vitro Vascular Smooth Muscle-response for AII
The compounds of the invention were tested for antagonist activity in rabbit aortic rings. Male New Zealand white rabbits (2-2.5 kg) were sacrificed using an overdose of pentobarbital and exsanguinated via the carotid arteries. The thoracic aorta was removed, cleaned of adherent fat and connective tissue and then cut into 3-mm ring segments. The endothelium was removed from the rings by gently sliding a rolled-up piece of filter paper into the vessel lumen. The rings were then mounted in a water-jacketed tissue bath, maintained at 37° C., between moveable and fixed ends of a stainless steel wire with the moveable end attached to an FT03 Grass transducer coupled to a Model 7D Grass Polygraph for recording isometric force responses. […] The preparations were equilibrated for one hour before approximately one gram of passive tension was placed on the rings. Angiotensin II concentration-response curves were then recorded (3×10^−10 to 1×10^−5 M). Each concentration of AII was allowed to elicit its maximal contraction, and then AII was washed out repeatedly for 30 minutes before rechallenging with a higher concentration of AII. Aorta rings were exposed to the test antagonist at 10^−5 M for 5 minutes before challenging with AII. Adjacent segments of the same aorta ring were used for all concentration-response curves in the presence or absence of the test antagonist. The effectiveness of the test compound was expressed in terms of pA2 values and were calculated according to H. O. Schild [Br. J. Pharmacol. Chemother., 2, 189-206 (1947)]. The pA2 value is […] which increases the EC50 value for AII by a factor of two. Each test antagonist was evaluated in aorta rings from two rabbits.
2Assay B: In vitro Vascular Smooth Muscle Response

Assay B pA2 (NC = Non-Competitive antagonist) | SMILES
NC | CCCCc1cn(-c2ccccc2CC)c(=O)n1Cc1ccc(-c2ccccc2-c2nnn[nH]2)cc1 [Compound 271]
NC | CCCCc1cn(-c2ccccc2C(C)C)c(=O)n1Cc1ccc(-c2ccccc2-c2nnn[nH]2)cc1 [Compound 272]
NC | CCCCc1cn([C@H]2[C@H](C)CCC[C@@H]2C)c(=O)n1Cc1ccc(-c2ccccc2-c2nnn[nH]2)nc1 [Compound 236]

Same assay, conditions: two determinations given as a/b

SMILES | Kb [µM]
CCCCc1nn(CCCCC(=O)O)c(=O)n1Cc1ccc(-c2ccccc2-c2nn[nH]n2)cc1 [Compound 103] | 0.01
CCCCc1nn(CC(=O)O)c(=O)n1Cc1ccc(-c2ccccc2-c2nn[nH]n2)cc1 [Compound 87] | 0.0158
CCCCc1nc(C)n(Cc2ccc(-c3ccccc3C(=O)O)cc2)n1 [Compound 77] | 1.7
CCCCCn1nc(CCCC)n(Cc2ccc(-c3ccccc3-c3nn[nH]n3)cc2)c1=O [Compound 90] | 0.001
CCCCc1nc(Cl)c(Cl)n1Cc1ccc(-n2cccc2C(=O)O)cc1 [Compound 147] | 2.51
CCCCc1nc(Cc2ccc(-c3ccccc3C(=O)O)cc2)nn1CCCC [Compound 127] | 11
CCCCc1nn(CCCC)c(=O)n1Cc1ccc(-c2ccccc2C(=O)O)cc1 [Compound 78] | 0.1
CCCCc1nn(CCC(C)CC(C)(C)C)c(=O)n1Cc1ccc(-c2ccccc2-c2nn[nH]n2)cc1 (centres unmarked) [Compound 92] | 0.0126
CCCCCCn1nc(CCCC)n(Cc2ccc(-c3ccccc3-c3nn[nH]n3)cc2)c1=O [Compound 85] | 0.00126
CCCCc1nn(CCC2CCCCC2)c(=O)n1Cc1ccc(-c2ccccc2-c2nn[nH]n2)cc1 [Compound 89] | 0.0126
CCCCn1nc(C(C#N)CCC)n(Cc2ccc(-c3ccccc3-c3nn[nH]n3)cc2)c1=O (centres unmarked) [Compound 106] | 0.02
CCCCc1nn(CC(OCc2ccccc2)c2ccccc2)c(=O)n1Cc1ccc(-c2ccccc2-c2nn[nH]n2)cc1 (centres unmarked) [Compound 97] | 0.02
CCCCc1nn(CC(=O)C23CC4CC(CC(C4)C2)C3)c(=O)n1Cc1ccc(-c2ccccc2-c2nn[nH]n2)cc1 [Compound 80] | 0.00794
CCCCc1nc(Cc2ccc(-c3ccccc3-c3nnn[nH]3)cc2)nn1CCCC [Compound 129] | 5.01
CCCCc1nn(CC(=O)OCC)c(=O)n1Cc1ccc(-c2ccccc2-c2nn[nH]n2)cc1 [Compound 86] | 0.0158
CCCCc1nc(CCCC2CCCCC2)n(Cc2ccc(-c3ccccc3-c3nnn[nH]3)cc2)n1 [Compound 57] | 1
CCCCc1nn(CC(=O)c2cc(OC)ccc2OC)c(=O)n1Cc1ccc(-c2ccccc2-c2nn[nH]n2)cc1 [Compound 96] | 0.01
CCCCc1nc(Cl)c(CO)n1Cc1ccc(-n2cccc2C(=O)O)cc1 [Compound 148] | 1.58
CCCCc1nc2cnncc2n1Cc1ccc(-c2ccccc2C(=O)O)cc1 [Compound 108] | 5.01
CCCCc1nc2c(O)nnc(CCC)c2n1Cc1ccc(-c2ccccc2-c2nn[nH]n2)cc1 [Compound 114] | 0.398
CCCCc1nn(CC(=O)OC(C)(C)C)c(=O)n1Cc1ccc(-c2ccccc2-c2nn[nH]n2)cc1 [Compound 84] | 0.0794
CCCCc1nn(C(=O)CCC)c(=O)n1Cc1ccc(-c2ccccc2-c2nn[nH]n2)cc1 [Compound 95] | 0.00631
CCCCc1nc2c(O)nnc(O)c2n1Cc1ccc(-c2ccccc2C(=O)O)cc1 [Compound 109] | 0.0501

More lines, now with the values ahead:

Kb [µM] | SMILES
0.0158 | CCCCc1nn(C(CC(=O)OCC)C(=O)c2ccccc2)c(=O)n1Cc1ccc(-c2ccccc2-c2nn[nH]n2)cc1 (centres unmarked) [Compound 101]
0.00398 | CCCCc1nc2c(CCC)nnc(O)c2n1Cc1ccc(-c2ccccc2-c2nnn[nH]2)cc1 [Compound 113]
0.288 | CCCCc1cn(-c2c(C(C)C)cccc2C(C)C)c(=O)n1Cc1ccc(-c2ccccc2-c2nnn[nH]2)cc1 [Compound 277]
0.955 | CCCCc1ncn(Cc2ccc(-c3ccccc3-c3nnn[nH]3)cc2)n1 [Compound 54]
0.00501 | CCCCc1nn(CC(O)c2ccccc2)c(=O)n1Cc1ccc(-c2ccccc2-c2nn[nH]n2)cc1 (centres unmarked) [Compound 83]
0.02 | CCCCc1nn(C(C)(C)C(=O)c2ccccc2)c(=O)n1Cc1ccc(-c2ccccc2-c2nn[nH]n2)cc1 [Compound 102]
0.00316 | CCCCc1cn(-c2ccccc2Cl)c(=O)n1Cc1ccc(-c2ccccc2-c2nnn[nH]2)cc1 [Compound 135]
6.31 | CCCCc1nc2c(OCC)nnc(OCC)c2n1Cc1ccc(-c2ccccc2-c2nnn[nH]2)cc1 [Compound 112]
0.00501 | CCCCc1c(C)n(CCCC)c(=O)n1Cc1ccc(-c2ccccc2-c2nnn[nH]2)cc1 [Compound 137]
0.002 | CCCCc1cn(CCc2ccccc2)c(=O)n1Cc1ccc(-c2ccccc2-c2nnn[nH]2)cc1 [Compound 133]
0.316 | CCCCc1nc2c(O)nncc2n1Cc1ccc(-c2ccccc2-c2nnn[nH]2)cc1 [Compound 116]
0.000501 | CCCCc1cn(CCc2cccs2)c(=O)n1Cc1ccc(-c2ccccc2-c2nnn[nH]2)cc1 [Compound 134]
0.00251 | CCCCc1nn(CC(OCC(=O)O)c2ccccc2)c(=O)n1Cc1ccc(-c2ccccc2-c2nn[nH]n2)cc1 (centres unmarked) [Compound 91]
0.00501 | CCCCc1nn(CC(OCC(=O)OCC)c2ccccc2)c(=O)n1Cc1ccc(-c2ccccc2-c2nn[nH]n2)cc1 (centres unmarked) [Compound 107]
0.01 | CCCCc1nn(CCCc2ccccc2)c(=O)n1Cc1ccc(-c2ccccc2-c2nn[nH]n2)cc1 [Compound 81]
0.000851 | CCCCc1cn(-c2c(C)cccc2C)c(=O)n1Cc1ccc(-c2ccccc2-c2nnn[nH]2)cc1 [Compound 275]
0.00794 | CCCCc1nn(CC(O)c2cc(OC)ccc2OC)c(=O)n1Cc1ccc(-c2ccccc2-c2nn[nH]n2)cc1 (centres unmarked) [Compound 98]
0.316 | CCCCc1nn(Cc2ccc3ccccc3c2)c(=O)n1Cc1ccc(-c2ccccc2-c2nn[nH]n2)cc1 [Compound 99]
0.00631 | CCCc1cn(CCC)c(=O)n1Cc1ccc(-c2ccccc2-c2nnn[nH]2)cc1 [Compound 138]
0.398 | CCCCc1nc2c(Cl)nnc(Cl)c2n1Cc1ccc(-c2ccccc2-c2nnn[nH]2)cc1 [Compound 110]

Each molecule was assayed on pressor response to AII (assay: Assay C: In vivo Intragastric Pressor Assay Response for AII Antagonists). Settings: dose 3 mg/kg, rat.
Protocol: Assay C: In vivo Intragastric Pressor Assay Response for All Antagonists
Male Sprague-Dawley rats weighing 225-300 grams were anesthetized with methohexital (30 mg/kg, i.p.) and catheters were implanted into the femoral artery and vein. The catheters were tunneled subcutaneously to exit dorsally, posterior to the head and between the scapulae. The catheters were filled with heparin (1000 units/ml of saline). The rats were returned to their cage and allowed regular rat chow and water ad libitum. After full recovery from surgery (3-4 days), rats were placed in Lucite holders and the arterial line was connected to a pressure transducer. Arterial pressure was recorded on a Gould polygraph (mmHg). Angiotensin II was administered as a 30 ng/kg bolus via the venous catheter delivered in a 50 μl volume with a 0.2 ml saline flush. The pressor response in mm Hg was measured by the difference from pre-injection arterial pressure to the maximum pressure achieved. The AII injection was repeated every 10 minutes until three consecutive injections yielded responses within 4 mmHg of each other. These three responses were then averaged and represented the control response to AII. The test compound was suspended in 0.5% methylcellulose in water and was administered by gavage. The volume administered was 2 ml/kg body weight. The standard dose was 3 mg/kg. Angiotensin II bolus injections were given at 30, 45, 60, 75, 120, 150, and 180 minutes after gavage. The pressor response to AII was measured at each time point. The rats were then returned to their cage for future testing. A minimum of 3 days was allowed between tests. Percent inhibition was calculated for each time point following gavage by the following formula: [(Control Response—Response at time point)/Control Response]×100.
3Assay C: In vivo Pressor Response

SMILES | Assay C Duration [min]
CCCCc1nc2c(OC(C)=O)nnc(OC(C)=O)c2n1Cc1ccc(-c2ccccc2-c2nnn[nH]2)cc1 [Compound 125] | >240
CCCCc1nc2cnncc2n1Cc1ccc(-c2ccccc2-c2nnn[nH]2)cc1 [Compound 115] | >240

Same assay, conditions: po, dose 3 mg/kg, rat, AII pressor response

SMILES | inhibition at 3 mg/kg [%]
CCCCc1nc2c(OC(C)=O)nnc(OC(C)=O)c2n1Cc1ccc(-c2ccccc2-c2nnn[nH]2)cc1 [Compound 125] | 35
CCCCc1nc2cnncc2n1Cc1ccc(-c2ccccc2-c2nnn[nH]2)cc1 [Compound 115] | 40
